According to PubChem BioAssay AID2060506 (Molecular Pharmacology Branch, DTP, NCI, 2025):

Test system: 598228-144-R-J1-PDC complex spheroid viability
Assay: Anticancer human tumor 598228-144-R-J1-PDC patient-derived serous endometrial adenocarcinoma cell line growth inhibition [GQUAD]
Conditions: for IC50: curve of first compound; for viability, T/C: stronger effect = lower value
Outline: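 Multi-cell-type spheroids of tumor cells with HUVEC and mesenchymal stem cells, treated with drug combinations. Concentrations descend in half-log steps from near clinical Cmax, or from 10 microM where Cmax is unknown; viability read-out.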

[1] = second compound 0.0316 µM, first compound 0.0316 µM
[2] = second compound 0.0316 µM, first compound 0.1 µM
[3] = second compound 0.0316 µM, first compound 0.316 µM
[4] = second compound 0.0316 µM, first compound 1 µM
[5] = second compound 0.0316 µM, first compound 3.16 µM
[6] = second compound 0.0316 µM, first compound 10 µM
[7] = second compound 0.1 µM, first compound 0.0316 µM
[8] = second compound 0.1 µM, first compound 0.1 µM
[9] = second compound 0.1 µM, first compound 0.316 µM
[10] = second compound 0.1 µM, first compound 1 µM
[11] = second compound 0.1 µM, first compound 3.16 µM
[12] = second compound 0.1 µM, first compound 10 µM
[13] = second compound 0.316 µM, first compound 0.0316 µM
[14] = second compound 0.316 µM, first compound 0.1 µM
[15] = second compound 0.316 µM, first compound 0.316 µM
[16] = second compound 0.316 µM, first compound 1 µM
[17] = second compound 0.316 µM, first compound 3.16 µM
[18] = second compound 0.316 µM, first compound 10 µM
[19] = second compound 1 µM, first compound 0.0316 µM
[20] = second compound 1 µM, first compound 0.1 µM
[21] = second compound 1 µM, first compound 0.316 µM
[22] = second compound 1 µM, first compound 1 µM
[23] = second compound 1 µM, first compound 3.16 µM
[24] = second compound 1 µM, first compound 10 µM
[25] = second compound 3.16 µM, first compound 0.0316 µM
[26] = second compound 3.16 µM, first compound 0.1 µM
[27] = second compound 3.16 µM, first compound 0.316 µM
[28] = second compound 3.16 µM, first compound 1 µM
[29] = second compound 3.16 µM, first compound 3.16 µM
[30] = second compound 3.16 µM, first compound 10 µM
[31] = second compound 10 µM, first compound 0.0316 µM
[32] = second compound 10 µM, first compound 0.1 µM
[33] = second compound 10 µM, first compound 0.316 µM
[34] = second compound 10 µM, first compound 1 µM
[35] = second compound 10 µM, first compound 3.16 µM
[36] = second compound 10 µM, first compound 10 µM
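Further: spheroids exposed to the agents for one week before reading.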
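Wherever viability, T/C is given: percent of vehicle DMSO control viability so 100% = untreated growth.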

CC1COCCN1c1cc(C2(S(C)(=N)=O)CC2)nc(-c2ccnc3[nH]ccc23)n1 (stereo not drawn) + CN(C)c1ccc(Nc2c3ccc(NC(=O)CCN4CCCC4)cc3nc3cc(NC(=O)CCN4CCCC4)ccc23)cc1
IC50 (second compound 0.0316 µM): 2870 nM | IC50 (second compound 0.1 µM): 8670 nM | IC50 (second compound 0.316 µM): > 10000 nM | IC50 (second compound 1 µM): > 10000 nM | IC50 (second compound 3.16 µM): > 10000 nM | IC50 (second compound 10 µM): 1730 nM | viability, T/C [1]: 91.7% | viability, T/C [2]: 117% | viability, T/C [3]: 102% | viability, T/C [4]: 81.5% | viability, T/C [5]: 46.5% | viability, T/C [6]: 47% | viability, T/C [7]: 97.7% | viability, T/C [8]: 122% | viability, T/C [9]: 98.7% | viability, T/C [10]: 98.3% | viability, T/C [11]: 62.7% | viability, T/C [12]: 48.3% | viability, T/C [13]: 97.1% | viability, T/C [14]: 136% | viability, T/C [15]: 85% | viability, T/C [16]: 61.8% | viability, T/C [17]: 61.6% | viability, T/C [18]: 45.9% | viability, T/C [19]: 125% | viability, T/C [20]: 96.6% | viability, T/C [21]: 103% | viability, T/C [22]: 70.8% | viability, T/C [23]: 69.2% | viability, T/C [24]: 60.1% | viability, T/C [25]: 125% | viability, T/C [26]: 89.2% | viability, T/C [27]: 99.4% | viability, T/C [28]: 69.4% | viability, T/C [29]: 61.7% | viability, T/C [30]: 57.7% | viability, T/C [31]: 95.8% | viability, T/C [32]: 88.5% | viability, T/C [33]: 89.9% | viability, T/C [34]: 64.7% | viability, T/C [35]: 33.9% | viability, T/C [36]: 26.6%

CC1COCCN1c1cc(C2(O)CC3CCC(C2)O3)c2cnn(-c3ccn[nH]3)c2n1 (stereo not drawn) + Cc1[nH]c2ccc(F)cc2c1-c1nc2c3cccnc3c3ncccc3c2[nH]1
IC50 (second compound 0.0316 µM): 144 nM | IC50 (second compound 0.1 µM): 95 nM | IC50 (second compound 0.316 µM): < 31.6 nM | IC50 (second compound 1 µM): < 31.6 nM | IC50 (second compound 3.16 µM): < 31.6 nM | IC50 (second compound 10 µM): < 31.6 nM | viability, T/C [1]: 68% | viability, T/C [2]: 48% | viability, T/C [3]: 39% | viability, T/C [4]: 40.7% | viability, T/C [5]: 28% | viability, T/C [6]: 14% | viability, T/C [7]: 61.3% | viability, T/C [8]: 40.1% | viability, T/C [9]: 46.8% | viability, T/C [10]: 34.9% | viability, T/C [11]: 31.5% | viability, T/C [12]: 17.4% | viability, T/C [13]: 48.8% | viability, T/C [14]: 44.1% | viability, T/C [15]: 44.2% | viability, T/C [16]: 37.6% | viability, T/C [17]: 28.3% | viability, T/C [18]: 12.6% | viability, T/C [19]: 48.9% | viability, T/C [20]: 37.1% | viability, T/C [21]: 38% | viability, T/C [22]: 27.4% | viability, T/C [23]: 19.9% | viability, T/C [24]: 12.7% | viability, T/C [25]: 36.8% | viability, T/C [26]: 38.8% | viability, T/C [27]: 30.3% | viability, T/C [28]: 26.7% | viability, T/C [29]: 18.3% | viability, T/C [30]: 8.63% | viability, T/C [31]: 41.4% | viability, T/C [32]: 37.4% | viability, T/C [33]: 31.6% | viability, T/C [34]: 29.7% | viability, T/C [35]: 25.4% | viability, T/C [36]: 12.1%

CC(=O)O[C@H]1C(=O)[C@@]2(C)[C@H]([C@H](OC(=O)c3ccccc3)[C@]3(O)C[C@H](OC(=O)[C@H](O)[C@@H](NC(=O)c4ccccc4)c4ccccc4)C(C)=C1C3(C)C)[C@]1(OC(C)=O)CO[C@@H]1C[C@@H]2O + CN(C)c1ccc(Nc2c3ccc(NC(=O)CCN4CCCC4)cc3nc3cc(NC(=O)CCN4CCCC4)ccc23)cc1
IC50 (second compound 0.0316 µM): < 31.6 nM | IC50 (second compound 0.1 µM): < 31.6 nM | IC50 (second compound 0.316 µM): < 31.6 nM | IC50 (second compound 1 µM): < 31.6 nM | IC50 (second compound 3.16 µM): < 31.6 nM | IC50 (second compound 10 µM): < 31.6 nM | viability, T/C [1]: 49.4% | viability, T/C [2]: 43.3% | viability, T/C [3]: 44.2% | viability, T/C [4]: 32.9% | viability, T/C [5]: 37.3% | viability, T/C [6]: 53.6% | viability, T/C [7]: 47.6% | viability, T/C [8]: 43.1% | viability, T/C [9]: 35% | viability, T/C [10]: 38.2% | viability, T/C [11]: 33.7% | viability, T/C [12]: 35.4% | viability, T/C [13]: 47.6% | viability, T/C [14]: 40.9% | viability, T/C [15]: 40.7% | viability, T/C [16]: 34.6% | viability, T/C [17]: 47% | viability, T/C [18]: 49.4% | viability, T/C [19]: 51.8% | viability, T/C [20]: 38.7% | viability, T/C [21]: 41.9% | viability, T/C [22]: 42.1% | viability, T/C [23]: 45.4% | viability, T/C [24]: 37% | viability, T/C [25]: 51.6% | viability, T/C [26]: 34.6% | viability, T/C [27]: 41.6% | viability, T/C [28]: 38.9% | viability, T/C [29]: 33.1% | viability, T/C [30]: 38.1% | viability, T/C [31]: 29.1% | viability, T/C [32]: 29.6% | viability, T/C [33]: 29.1% | viability, T/C [34]: 25.2% | viability, T/C [35]: 19.4% | viability, T/C [36]: 30.9%

O=C(NO)c1cnc(N2CCN(S(=O)(=O)c3ccc4ccccc4c3)CC2)nc1 + Cc1[nH]c2ccc(F)cc2c1-c1nc2c3cccnc3c3ncccc3c2[nH]1
IC50 (second compound 0.0316 µM): 187 nM | IC50 (second compound 0.1 µM): 248 nM | IC50 (second compound 0.316 µM): 209 nM | IC50 (second compound 1 µM): 123 nM | IC50 (second compound 3.16 µM): < 31.6 nM | IC50 (second compound 10 µM): 127 nM | viability, T/C [1]: 120% | viability, T/C [2]: 80.4% | viability, T/C [3]: 25.1% | viability, T/C [4]: 0.4% | viability, T/C [5]: 0.21% | viability, T/C [6]: 0.21% | viability, T/C [7]: 99.4% | viability, T/C [8]: 97.2% | viability, T/C [9]: 37.5% | viability, T/C [10]: 0.48% | viability, T/C [11]: 0.3% | viability, T/C [12]: 0.23% | viability, T/C [13]: 94.3% | viability, T/C [14]: 90.2% | viability, T/C [15]: 27.6% | viability, T/C [16]: 0.67% | viability, T/C [17]: 0.25% | viability, T/C [18]: 0.34% | viability, T/C [19]: 62.3% | viability, T/C [20]: 52.7% | viability, T/C [21]: 28.8% | viability, T/C [22]: 1% | viability, T/C [23]: 0.31% | viability, T/C [24]: 0.56% | viability, T/C [25]: 39.8% | viability, T/C [26]: 29.3% | viability, T/C [27]: 19.3% | viability, T/C [28]: 0.37% | viability, T/C [29]: 0.44% | viability, T/C [30]: 0.51% | viability, T/C [31]: 67.4% | viability, T/C [32]: 54.9% | viability, T/C [33]: 27.5% | viability, T/C [34]: 1.72% | viability, T/C [35]: 0.78% | viability, T/C [36]: 0.43%
